In US12365655B2, “Compounds” (CTXT PTY LTD, priority 2018, dated 2025):

Columns and labels:
MOF-KAT8 = molecular target: T1, MOF-KAT8 (Homo sapiens, UniProt Q9H7Z6); test: biochemical
T1 sequence (Q9H7Z6 with tags, fused parts or gaps): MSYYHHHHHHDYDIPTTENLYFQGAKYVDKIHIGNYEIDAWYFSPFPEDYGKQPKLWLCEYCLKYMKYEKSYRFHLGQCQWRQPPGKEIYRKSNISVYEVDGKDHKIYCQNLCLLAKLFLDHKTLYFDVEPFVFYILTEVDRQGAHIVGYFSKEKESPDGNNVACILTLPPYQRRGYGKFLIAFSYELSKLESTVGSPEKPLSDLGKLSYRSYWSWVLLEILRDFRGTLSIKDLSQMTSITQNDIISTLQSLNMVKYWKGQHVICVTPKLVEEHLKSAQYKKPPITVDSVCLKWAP

MOZ-KAT6A = MOZ-KAT6A (Homo sapiens, UniProt Q92794, A567V); test: Acetyltransferase biochemical assay (AlphaScreen), KAT6A
TIP60-KAT5 = TIP60-KAT5 (Homo sapiens, UniProt Q92993); test: Acetyltransferase biochemical assay (AlphaScreen), KAT5
HBO-KAT7 = HBO-KAT7 (Homo sapiens, UniProt O95251); test: Acetyltransferase biochemical assay (AlphaScreen), KAT7
Chain of HBO-KAT7 (O95251 with tags, fused parts or gaps): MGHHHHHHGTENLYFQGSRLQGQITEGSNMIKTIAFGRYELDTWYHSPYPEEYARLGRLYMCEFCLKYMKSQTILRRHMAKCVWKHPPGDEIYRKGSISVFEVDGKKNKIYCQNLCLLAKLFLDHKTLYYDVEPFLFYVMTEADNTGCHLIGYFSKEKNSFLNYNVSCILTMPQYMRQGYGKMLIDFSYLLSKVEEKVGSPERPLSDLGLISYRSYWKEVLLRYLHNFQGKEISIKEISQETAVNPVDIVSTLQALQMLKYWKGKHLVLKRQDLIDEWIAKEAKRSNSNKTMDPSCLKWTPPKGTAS

Chain of TIP60-KAT5 (Q92993 with tags, fused parts or gaps isoform Q92993-2): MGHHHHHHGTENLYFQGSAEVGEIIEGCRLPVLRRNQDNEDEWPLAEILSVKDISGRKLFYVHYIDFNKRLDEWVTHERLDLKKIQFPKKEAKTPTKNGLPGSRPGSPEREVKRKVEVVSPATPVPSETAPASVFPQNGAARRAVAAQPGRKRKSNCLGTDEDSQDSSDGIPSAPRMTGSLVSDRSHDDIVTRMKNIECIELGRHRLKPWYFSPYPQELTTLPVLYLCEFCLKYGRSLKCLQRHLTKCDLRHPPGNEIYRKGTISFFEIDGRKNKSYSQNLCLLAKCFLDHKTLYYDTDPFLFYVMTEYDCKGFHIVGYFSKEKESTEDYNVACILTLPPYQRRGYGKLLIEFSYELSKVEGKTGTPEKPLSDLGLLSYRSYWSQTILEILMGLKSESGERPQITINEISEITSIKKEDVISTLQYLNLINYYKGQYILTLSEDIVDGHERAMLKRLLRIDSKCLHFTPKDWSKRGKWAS
Chain of MOZ-KAT6A (Q92794 with tags, fused parts or gaps A567V): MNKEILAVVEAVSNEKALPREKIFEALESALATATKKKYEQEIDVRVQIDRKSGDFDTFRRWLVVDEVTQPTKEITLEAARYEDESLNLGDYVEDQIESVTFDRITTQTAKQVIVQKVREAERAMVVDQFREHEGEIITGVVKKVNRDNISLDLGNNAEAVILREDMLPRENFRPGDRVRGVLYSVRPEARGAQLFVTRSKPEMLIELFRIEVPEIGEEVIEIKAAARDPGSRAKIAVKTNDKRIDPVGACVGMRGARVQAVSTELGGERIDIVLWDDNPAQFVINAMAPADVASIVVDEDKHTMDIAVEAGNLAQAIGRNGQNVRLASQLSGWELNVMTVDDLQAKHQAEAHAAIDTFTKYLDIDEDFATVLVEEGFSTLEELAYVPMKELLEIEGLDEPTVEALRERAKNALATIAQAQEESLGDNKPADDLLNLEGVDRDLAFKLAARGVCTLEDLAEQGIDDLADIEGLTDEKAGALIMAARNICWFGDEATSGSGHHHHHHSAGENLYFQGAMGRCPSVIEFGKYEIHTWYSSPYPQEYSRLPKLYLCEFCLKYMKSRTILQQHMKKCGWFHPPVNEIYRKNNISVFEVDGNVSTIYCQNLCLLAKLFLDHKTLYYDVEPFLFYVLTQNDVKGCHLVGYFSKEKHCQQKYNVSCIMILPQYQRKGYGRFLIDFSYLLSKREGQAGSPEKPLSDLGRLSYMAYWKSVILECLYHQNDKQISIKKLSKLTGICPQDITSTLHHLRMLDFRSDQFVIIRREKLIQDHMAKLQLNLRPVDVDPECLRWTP

Row | Compound | IC50 (MOF-KAT8) [µM] | IC50 (MOZ-KAT6A) [µM] | IC50 (TIP60-KAT5) [µM] | IC50 (HBO-KAT7) [µM]
1 | COc1cccc(OC)c1S(=O)(=O)Nc1noc2cc(C(C)OC)cc(OC)c12 (centres unmarked) [Example 93, 2,6-Dimethoxy-N-(4-methoxy-6-(1-methoxyethyl)benzo[d]isoxazol-3-yl)benzenesulfonamide] | 96.5 | 0.181 | 53.1 | 2.8
2 | COc1cc(COc2cccc(OC)c2S(=O)(=O)Nc2noc3cccc(OC)c23)ccn1 [Example 216, 2-Methoxy-N-(4-methoxybenzo[d]isoxazol-3-yl)-6-((2-methoxypyridin-4-yl)methoxy)benzenesulfonamide] | 11.2 | 0.625 | 124 | 3.11
3 | Cc1ccc(-n2cccn2)cc1S(=O)(=O)Nc1noc2cccc(Cl)c12 [Example 20, N-(4-chlorobenzo [d]isoxazol-3-yl)-2-methyl-5-(1H-pyrazol-1-yl)benzenesulfonamide] | 61.4 | 29.4 | 81.5 | 41.3
4 | Cc1ccc(-c2ccno2)cc1S(=O)(=O)Nc1noc2cccc(Cl)c12 [Example 19, N-(4-chlorobenzo [d]isoxazol-3-yl)-5-(isoxazol-5-yl)-2-methylbenzenesulfonamide] | 41 | 32.2 | 65 | 36.1
5 | CCc1ccc(OC)c(S(=O)(=O)Nc2noc3ccc(OC)cc23)c1 [Example 111, 5-Ethyl-2-methoxy-N-(5-methoxybenzo[d]isoxazol-3-yl)benzenesulfonamide] | 3.22 | 0.842 | 26.6 | 4.54
6 | COc1cc2c(cc1S(=O)(=O)Nc1noc3ccc(C4CC4)cc13)CCCC2 [Example 205, N-(5-Cyclopropylbenzo[d]isoxazol-3-yl)-3-methoxy-5,6,7,8-tetrahydronaphthalene-2-sulfonamide] | 3.44 | 0.115 | 3.73 | 0.936
7 | COc1ccc(S(=O)(=O)Nc2noc3ccc(C)cc23)c(OC)c1 [Example 170, 2,4-dimethoxy-N-(5-methylbenzo[d]isoxazol-3-yl)benzenesulfonamide] | 9.67 | 1.5 | 4.83 | 0.982
8 | COc1cccc(OCc2cnn(C)c2)c1S(=O)(=O)Nc1noc2cccc(OC)c12 [Example 221, 2-Methoxy-N-(4-methoxybenzo[d]isoxazol-3-yl)-6-((1-methyl-1H-pyrazol-4-yl)methoxy)benzenesulfonamide] | 27.9 | 37.5 | > 125 | 63.7
9 | COc1cccc(OC)c1S(=O)(=O)Nc1noc2cccc([N+](=O)[O-])c12 [Example 223, 2,6-Dimethoxy-N-(4-nitrobenzo[d]isoxazol-3-yl)benzenesulfonamide] | 42.4 | 25.5 | > 125 | 43.5
10 | CCc1ccc2onc(NS(=O)(=O)c3cc4c(cc3OC)CCCC4)c2c1 [Example 204, N-(5-Ethylbenzo[d]isoxazol-3-yl)-3-methoxy-5,6,7,8-tetrahydronaphthalene-2-sulfonamide] | 3.06 | 0.4 | 4.57 | 3.05
11 | CCOc1ccc2onc(NS(=O)(=O)c3cc(CC)ccc3OC)c2c1 [Example 109] | 9.12 | 1.21 | 69.3 | 4.07
12 | CNc1cccc(OC)c1S(=O)(=O)Nc1noc2cccc(OC)c12 [Example 214, 2-Methoxy-N-(4-methoxybenzo[d]isoxazol-3-yl)-6-(methylamino)benzenesulfonamide] | > 125 | 36.4 | > 125 | > 125
13 | O=S(=O)(Nc1noc2cccc(Cl)c12)c1ccc(Cl)cc1 [Example 26, 4-chloro-N-(4-chlorobenzo[d]isoxazol-3-yl)benzenesulfonamide] | 29.5 | 60.1 | > 125 | 34.5
14 | COCc1cc2onc(NS(=O)(=O)c3cccnc3)c2cc1C [Example 165, N-(6-(methoxymethyl)-5-methylbenzo[d]isoxazol-3-yl)pyridine-3-sulfonamide] | > 125 | 99.9 | > 125 | 30.7
15 | COCc1cc(OC)c2c(NS(=O)(=O)c3c(OC)cccc3OC)noc2c1Cl [Example 161] | 118 | 1.87 | > 125 | 2.51
16 | COc1cccc(OC)c1S(=O)(=O)Nc1noc2ccc(OC(F)(F)F)cc12 [Example 100, 2,6-Dimethoxy-N-(5-(trifluoromethoxy)benzo [d]isoxazol-3-yl)benzenesulfonamide] | 62.6 | 0.972 | 51.7 | 2.24
17 | CCOc1cccc2c(NS(=O)(=O)c3cc(CC)ccc3OC)noc12 [Example 132] | 15.3 | 7.45 | 53 | 11.8
18 | CCc1ccc(OC)c(S(=O)(=O)Nc2noc3cccc(Cl)c23)c1 [Example 154] | 2.57 | 0.516 | 25.3 | 3.13

Row | Compound | IC50 (MOF-KAT8) [µM] | IC50 (MOZ-KAT6A) [µM] | IC50 (TIP60-KAT5) [µM] | IC50 (HBO-KAT7) [µM]
19 | CS(=O)(=O)c1ccc(S(=O)(=O)Nc2noc3cccc(Cl)c23)cc1 [Example 21, N-(4-chlorobenzo [d]isoxazol-3-yl)-4-(methylsulfonyl) benzenesulfonamide] | 39.7 | 24.8 | > 125 | 25.5
20 | COc1cccc2onc(NS(=O)(=O)c3cccc4ccoc34)c12 [Example 81, N-(4-methoxybenzo[d]isoxazol-3-yl)benzofuran-7-sulfonamide] | 9.43 | 43.6 | 31.5 | 6.73
21 | CCOc1ccc2c(NS(=O)(=O)c3cc(CC)ccc3OC)noc2c1 [Example 139] |  | 2.14 | 34.3 | 10
22 | O=S(=O)(Nc1noc2cccc(Cl)c12)c1ccc(-n2cccn2)cc1 [Example 28, N-(4-chlorobenzo [d]isoxazol-3-yl)-4-(1H-pyrazol-1-yl)benzenesulfonamide] |  | 117 | > 125 | 54.8
23 | COc1ccccc1S(=O)(=O)Nc1noc2cccc(F)c12 [Example 156] |  | 1.54 | > 125 | 1.97
24 | COc1cccc(OC)c1S(=O)(=O)Nc1noc2cc(-c3cccc(C#N)c3)cc(OC)c12 [Example 243] |  | 0.654 | 18.1 | 0.72
25 | COc1cccc(OC)c1S(=O)(=O)Nc1noc2cc(COCC(F)(F)F)cc(OC)c12 [Example 240, 2,6-Dimethoxy-N-(4-methoxy-6-((2,2,2-trifluoroethoxy)methyl)benzo[d]isoxazol-3-yl)benzenesulfonamide] |  | 1.83 | 122 | 10.2
26 | COc1cccc2onc(NS(=O)(=O)c3cc(C)cc4cccnc34)c12 [Example 78, N-(4-methoxybenzo[d]isoxazol-3-yl)-6-methyl quinoline-8-sulfonamide] |  | 93.8 | > 125 | > 125
27 | COc1cc(C)cc(-c2cc(OC)c3c(NS(=O)(=O)c4c(OC)cccc4OC)noc3c2)c1 [Example 248, 2,6-Dimethoxy-N-(4-methoxy-6-(3-methoxy-5-methylphenyl)benzo[d]isoxazol-3-yl)benzenesulfonamide] |  | 0.139 | 9.33 | 0.375
28 | COc1cccc(OC)c1S(=O)(=O)Nc1noc2cc(-c3cccnc3)cc(OC)c12 [Example 246, 2,6-Dimethoxy-N-(4-methoxy-6-(pyridin-3-yl)benzo[d]isoxazol-3-yl)benzenesulfonamide] |  | 0.676 | 27.1 | 0.478
29 | CCc1ccc(OC)c(S(=O)(=O)Nc2noc3c(C4CC4)cccc23)c1 [Example 189] |  | 4.35 | 32 | 8.02
30 | CCc1ccc(OC)c(S(=O)(=O)Nc2noc3cc(C)ccc23)c1 [Example 193, 5-Ethyl-2-methoxy-N-(6-methylbenzo[d]isoxazol-3-yl)benzenesulfonamide] |  | 1.95 | 53.1 | 15.5
31 | CCOc1cccc2onc(NS(=O)(=O)c3cc(CC)ccc3OC)c12 [Example 112] |  | 1.46 | 16.5 | 3.01
32 | CCc1ccc(OC)c(S(=O)(=O)Nc2noc3ccc(Cl)cc23)c1 [Example 150] |  | 4.97 | 50 | 8.04
33 | CCc1ccc(S(=O)(=O)Nc2noc3ccccc23)cc1 [Example 53, N-(benzo[d]isoxazol-3-yl)-4-ethylbenzene sulfonamide] |  | 90.7 | > 125 | > 125
34 | CCc1cc2c(c(S(=O)(=O)Nc3noc4cccc(Cl)c34)c1)OCC2 [Example 181, N-(4-Chlorobenzo[d]isoxazol-3-yl)-5-ethyl-2,3-dihydrobenzofuran-7-sulfonamide] |  | 1.06 | 23.8 | 5.14
35 | CCc1ccc(OC)c(S(=O)(=O)Nc2noc3c(OCC4CC4)cccc23)c1 [Example 133] |  | 4.45 | 45.7 | 5.34
36 | COc1cccc(OC)c1S(=O)(=O)Nc1noc2c(-c3ccccc3)ccc(OC)c12 [Example 142, 2,6-Dimethoxy-N-(4-methoxy-7-phenylbenzo[d]isoxazol-3-yl)benzenesulfonamide] |  | 3.3 | 32.2 | 1.16
